# US8586751B2, “Nicotinamide compounds useful as kinase modulators” (Bristol-Myers Squibb Company, priority 2009, dated 2013)
# Test system: Ramos B cells with beta-lactamase reporter gene under control of an NFAT response element
# Test: NFAT-bla RA1 Reporter Assay (Ramos-NFAT)
# Type: cell-based, human
# Details: Homo sapiens, Ramos, read-out: IMM Ramos-NFAT (IC50)
# Experimental: NFAT-bla RA1 Reporter Assay
# Ramos B cells containing a stable integration of a beta-lactamase reporter gene under the control of an NFAT response element (NFAT-bla RA1, Invitrogen, K1434) at a density of 100×10^3 cells/well were incubated with test compounds at 37° C. for 30 min prior to stimulation with F(ab′)2 anti-human IgM (Jackson ImmunoResearch, 109-006-129) at 2.5 μg/ml for 4.5 hrs at 37° C. After stimulation, LiveBLAzer-FRET B/G substrate (CCF2/AM, or CCF4/AM, Invitrogen) was added to each well and incubated for 90 min at room temperature in the dark. Assay plates were read on an LJL Analyst, with raw emission values subtracted from a media-only blank containing substrate in assay media (no cells). The ratios of 460 nm/530 nm emission (405 nm excitation) were used to calculate the amount of stimulation.
row,SMILES,IC50 [nM]
1,CN(C)S(=O)(=O)c1ccc(Nc2nc(N3CCC[C@@H](NC(=O)c4ccccc4)C3)c(F)cc2C(N)=O)cc1 [Example 508],140
2,CN1CCC(C)(c2ccc(Nc3nc(N4CCC[C@@H](NC(=O)c5ccccc5)C4)c(F)cc3C(N)=O)cc2)CC1 [Example 518],30
3,CC(C)(C)OC(=O)N1CCCC(c2ccc(Nc3nc(N4CCCCC4)c(F)cc3C(N)=O)cc2)C1 (stereo not shown) [Example 523],10000
4,CC(C)(C)OC(=O)N1CCC(O)(c2ccc(Nc3nc(N4CCCCC4)c(F)cc3C(N)=O)cc2)C(C)(C)C1 (stereo not shown) [Example 524],5700
5,CN1CCN(C(=O)c2ccc(Nc3nc(N4CCC[C@@H](NC(=O)Nc5nccs5)C4)c(F)cc3C(N)=O)cc2)CC1 [Example 544],560
6,NC(=O)c1cc(F)c(N2CCC[C@@H](NC(=O)Nc3nccs3)C2)nc1Nc1ccc(CCO)cc1 [Example 545],160
7,CS(=O)(=O)c1ccc(Nc2nc(N3CCC[C@@H](NC(=O)Nc4nccs4)C3)c(F)cc2C(N)=O)cc1 [Example 546],230
8,NC(=O)c1cc(F)c(N2CCC[C@@H](NC(=O)Nc3nccs3)C2)nc1Nc1ccc(CCn2ccnc2)cc1 [Example 548],270
9,NC(=O)c1cc(F)c(N2CCC[C@@H](NC(=O)Nc3nccs3)C2)nc1Nc1ccc(CCN2CCCC2)cc1 [Example 549],30
10,CC(C)(C)NCCc1ccc(Nc2nc(N3CCC[C@@H](NC(=O)Nc4nccs4)C3)c(F)cc2C(N)=O)cc1 [Example 550],120
11,C[N+](C)([O-])CCc1ccc(Nc2nc(N3CCC[C@@H](NC(=O)Nc4nccs4)C3)c(F)cc2C(N)=O)cc1 [Example 552],5400
12,CN1CCC(C)(c2ccc(Nc3nc(N4CCC[C@@H](NC(=O)Nc5nccs5)C4)c(F)cc3C(N)=O)cc2)CC1 [Example 554],40
13,CN1CCC(C)(c2ccc(Nc3nc(N4CCC[C@@H](N5CCCC5=O)C4)c(F)cc3C(N)=O)cc2)CC1 [Example 566],90
14,CN1CCC(O)(c2ccc(Nc3nc(N4CCC[C@@H](N5CCCC5=O)C4)c(F)cc3C(N)=O)cc2)C(C)(C)C1 (stereo partly shown) [Example 568],120
15,CN1CCC(C)(c2ccc(Nc3nc(N4CCCC5(CC(c6ccccc6)=NO5)C4)c(F)cc3C(N)=O)cc2)CC1 (stereo not shown) [Example 571],150

# More lines, now with the values ahead:
row,IC50 [nM],SMILES
1,50,NC(=O)c1cc(F)c(N2CCC[C@@H](NC(=O)Nc3nccs3)C2)nc1Nc1ccc(CCN2CCC2)cc1 [Example 547]
2,190,NC(=O)c1cc(F)c(N2CCC[C@@H](NC(=O)Nc3nccs3)C2)nc1Nc1ccc(C2CCOCC2)cc1 [Example 555]
3,60,CN1CCCC(c2ccc(Nc3nc(N4CCC[C@@H](NC(=O)Nc5nccs5)C4)c(F)cc3C(N)=O)cc2)C1 (stereo partly shown) [Example 557]
4,380,CN1CCCC(c2ccc(Nc3nc(N4CCC[C@@H](NC(=O)Nc5nncs5)C4)c(F)cc3C(N)=O)cc2)C1 (stereo partly shown) [Example 558]
5,70,CN1CCCC(c2ccc(Nc3nc(N4CCC[C@@H](NC(=O)Nc5nnc(C(F)(F)F)s5)C4)c(F)cc3C(N)=O)cc2)C1 (stereo partly shown) [Example 559]
6,180,CN1CCCC(c2ccc(Nc3nc(N4CCC[C@@H](NC(=O)Nc5nnc(C6CC6)s5)C4)c(F)cc3C(N)=O)cc2)C1 (stereo partly shown) [Example 560]
7,140,CN1CCCC(c2ccc(Nc3nc(N4CCC[C@@H](NC(=O)Nc5nnc(C(C)(C)C)s5)C4)c(F)cc3C(N)=O)cc2)C1 (stereo partly shown) [Example 561]
8,100,CN1CCCC(c2ccc(Nc3nc(N4CCC[C@@H](NC(=O)Nc5ncc(F)s5)C4)c(F)cc3C(N)=O)cc2)C1 (stereo partly shown) [Example 564]

# Target: T1, human recombinant Btk (Homo sapiens, UniProt Q06187)
# T1 construct: purchased Invitrogen Corporation
# Test: Human Recombinant Btk Enzyme Assay (LLE_BTK)
# Type: biochemical
# Details: not given
# Experimental: Human Recombinant Btk Enzyme Assay
# To V-bottom 384-well plates were added test compounds, human recombinant Btk (1 nM, Invitrogen Corporation), fluoresceinated peptide (1.5 μM), ATP (20 μM), and assay buffer (20 mM HEPES pH 7.4, 10 mM MgCl2, 0.015% Brij35 and 4 mM DTT in 1.6% DMSO), with a final volume of 30 μL. After incubating at room temperature for 60 min, the reaction was terminated by adding 45 μl of 35 mM EDTA to each sample. The reaction mixture was analyzed on the Caliper LABCHIP® 3000 (Caliper, Hopkinton, Mass.) by electrophoretic separation of the fluorescent substrate and phosphorylated product. Inhibition data were calculated by comparison to no enzyme control reactions for 100% inhibition and no inhibitor controls for 0% inhibition. Dose response curves were generated to determine the concentration required inhibiting 50% of kinase activity (IC50). Compounds were dissolved at 10 mM in dimethylsulfoxide (DMSO) and evaluated at eleven concentrations.
# Using this assay, the following IC50 values derived by non-linear regression analysis were determined and compared to those values of certain compounds in U.S. Publication No. 2007/078136 and U.S. Publication No. 2008/045536.
# T1 sequence (Q06187 whole entry): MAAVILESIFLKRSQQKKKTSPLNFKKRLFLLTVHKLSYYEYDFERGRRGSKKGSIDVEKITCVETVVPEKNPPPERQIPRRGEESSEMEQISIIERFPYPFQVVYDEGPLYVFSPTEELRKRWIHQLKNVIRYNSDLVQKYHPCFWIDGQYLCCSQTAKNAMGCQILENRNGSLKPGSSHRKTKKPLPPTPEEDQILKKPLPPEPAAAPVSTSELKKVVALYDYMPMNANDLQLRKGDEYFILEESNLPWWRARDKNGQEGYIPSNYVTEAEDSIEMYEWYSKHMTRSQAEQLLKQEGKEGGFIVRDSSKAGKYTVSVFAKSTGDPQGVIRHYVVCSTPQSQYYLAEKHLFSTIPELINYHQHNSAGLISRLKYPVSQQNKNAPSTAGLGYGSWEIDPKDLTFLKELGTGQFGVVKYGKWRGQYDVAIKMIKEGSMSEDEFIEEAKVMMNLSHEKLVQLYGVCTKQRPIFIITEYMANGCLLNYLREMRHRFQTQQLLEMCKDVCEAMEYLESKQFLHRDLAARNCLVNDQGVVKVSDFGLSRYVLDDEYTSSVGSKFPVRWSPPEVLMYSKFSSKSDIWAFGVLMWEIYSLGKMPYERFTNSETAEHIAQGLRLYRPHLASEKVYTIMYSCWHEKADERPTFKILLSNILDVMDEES
row,SMILES,IC50 [nM]
1,CN(C)S(=O)(=O)c1ccc(Nc2nc(N3CCC[C@@H](NC(=O)c4ccccc4)C3)c(F)cc2C(N)=O)cc1 [Example 508],0.8
2,CN1CCC(C)(c2ccc(Nc3nc(N4CCC[C@@H](NC(=O)c5ccccc5)C4)c(F)cc3C(N)=O)cc2)CC1 [Example 518],2
3,CC(C)(C)OC(=O)N1CCCC(c2ccc(Nc3nc(N4CCCCC4)c(F)cc3C(N)=O)cc2)C1 (stereo not shown) [Example 523],3700
4,CC(C)(C)OC(=O)N1CCC(O)(c2ccc(Nc3nc(N4CCCCC4)c(F)cc3C(N)=O)cc2)C(C)(C)C1 (stereo not shown) [Example 524],1600
5,CN1CCN(C(=O)c2ccc(Nc3nc(N4CCC[C@@H](NC(=O)Nc5nccs5)C4)c(F)cc3C(N)=O)cc2)CC1 [Example 544],0.9
6,NC(=O)c1cc(F)c(N2CCC[C@@H](NC(=O)Nc3nccs3)C2)nc1Nc1ccc(CCO)cc1 [Example 545],2
7,CS(=O)(=O)c1ccc(Nc2nc(N3CCC[C@@H](NC(=O)Nc4nccs4)C3)c(F)cc2C(N)=O)cc1 [Example 546],3
8,NC(=O)c1cc(F)c(N2CCC[C@@H](NC(=O)Nc3nccs3)C2)nc1Nc1ccc(CCn2ccnc2)cc1 [Example 548],2
9,NC(=O)c1cc(F)c(N2CCC[C@@H](NC(=O)Nc3nccs3)C2)nc1Nc1ccc(CCN2CCCC2)cc1 [Example 549],0.7
10,CC(C)(C)NCCc1ccc(Nc2nc(N3CCC[C@@H](NC(=O)Nc4nccs4)C3)c(F)cc2C(N)=O)cc1 [Example 550],2
11,C[N+](C)([O-])CCc1ccc(Nc2nc(N3CCC[C@@H](NC(=O)Nc4nccs4)C3)c(F)cc2C(N)=O)cc1 [Example 552],1
12,CN1CCC(C)(c2ccc(Nc3nc(N4CCC[C@@H](NC(=O)Nc5nccs5)C4)c(F)cc3C(N)=O)cc2)CC1 [Example 554],0.7
13,CN1CCC(C)(c2ccc(Nc3nc(N4CCC[C@@H](N5CCCC5=O)C4)c(F)cc3C(N)=O)cc2)CC1 [Example 566],3
14,CN1CCC(O)(c2ccc(Nc3nc(N4CCC[C@@H](N5CCCC5=O)C4)c(F)cc3C(N)=O)cc2)C(C)(C)C1 (stereo partly shown) [Example 568],1
15,CN1CCC(C)(c2ccc(Nc3nc(N4CCCC5(CC(c6ccccc6)=NO5)C4)c(F)cc3C(N)=O)cc2)CC1 (stereo not shown) [Example 571],2

# Second part, the molecule after the results:
row,IC50 [nM],SMILES
1,1,NC(=O)c1cc(F)c(N2CCC[C@@H](NC(=O)Nc3nccs3)C2)nc1Nc1ccc(CCN2CCC2)cc1 [Example 547]
2,3,NC(=O)c1cc(F)c(N2CCC[C@@H](NC(=O)Nc3nccs3)C2)nc1Nc1ccc(C2CCOCC2)cc1 [Example 555]
3,2,CN1CCCC(c2ccc(Nc3nc(N4CCC[C@@H](NC(=O)Nc5nccs5)C4)c(F)cc3C(N)=O)cc2)C1 (stereo partly shown) [Example 557]
4,2,CN1CCCC(c2ccc(Nc3nc(N4CCC[C@@H](NC(=O)Nc5nncs5)C4)c(F)cc3C(N)=O)cc2)C1 (stereo partly shown) [Example 558]
5,2,CN1CCCC(c2ccc(Nc3nc(N4CCC[C@@H](NC(=O)Nc5nnc(C(F)(F)F)s5)C4)c(F)cc3C(N)=O)cc2)C1 (stereo partly shown) [Example 559]
6,0.8,CN1CCCC(c2ccc(Nc3nc(N4CCC[C@@H](NC(=O)Nc5nnc(C6CC6)s5)C4)c(F)cc3C(N)=O)cc2)C1 (stereo partly shown) [Example 560]
7,0.9,CN1CCCC(c2ccc(Nc3nc(N4CCC[C@@H](NC(=O)Nc5nnc(C(C)(C)C)s5)C4)c(F)cc3C(N)=O)cc2)C1 (stereo partly shown) [Example 561]
8,1,CN1CCCC(c2ccc(Nc3nc(N4CCC[C@@H](NC(=O)Nc5ncc(F)s5)C4)c(F)cc3C(N)=O)cc2)C1 (stereo partly shown) [Example 564]
